Experiment [1] has as its target Human sodium/glucose co-transporter type 2 (SGLT2) (Homo sapiens (Human), UniProt P31639). The experiment in a line: In vitro human SGLT2 inhibition assay (14C-AMG uptake). It counts as cell-based. Particulars: HEK293 cells expressing human HA-SGLT2, 14C-AMG uptake. The gist of the method: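 HEK293 cells stably expressing HA-tagged human SGLT2, seeded overnight, washed into Na+-containing HEPES/Tris uptake buffer with 1 mg/mL BSA, pH 7.3. Compound added, then 14C-AMG (100 nCi); 1-2 h at 37 °C, 5% CO2. Washed cells counted by scintillation for 14C-AMG uptake.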

The target in experiment [2] is Human sodium/glucose co-transporter type 1 (SGLT1) (Homo sapiens (Human), UniProt P13866). The experiment is described as follows: In vitro human SGLT1 inhibition assay (14C-AMG uptake). The conditions noted are these: HEK293 cells expressing human HA-SGLT1, 14C-AMG uptake. It counts as cell-based. The gist of the method:
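HEK293 cells stably expressing human HA-tagged SGLT1 (30,000/well, overnight) were washed into Na+-containing uptake buffer (140 mM NaCl, HEPES/Tris, 1 mg/mL BSA, pH 7.3). Cells then received compound plus 100 nCi 14C-AMG for 1–2 h at 37 °C; after washing, AMG uptake was quantified by scintillation counting.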

Here are results for 19 compounds from patent US9688710B2, “Inhibitors of sodium glucose cotransporter 1” (LEXICON PHARMACEUTICALS, INC., priority 2012, dated 2017).

Structures are written as SMILES.

Human sodium/glucose co-transporter type 2 (SGLT2), sequence (P31639 whole entry): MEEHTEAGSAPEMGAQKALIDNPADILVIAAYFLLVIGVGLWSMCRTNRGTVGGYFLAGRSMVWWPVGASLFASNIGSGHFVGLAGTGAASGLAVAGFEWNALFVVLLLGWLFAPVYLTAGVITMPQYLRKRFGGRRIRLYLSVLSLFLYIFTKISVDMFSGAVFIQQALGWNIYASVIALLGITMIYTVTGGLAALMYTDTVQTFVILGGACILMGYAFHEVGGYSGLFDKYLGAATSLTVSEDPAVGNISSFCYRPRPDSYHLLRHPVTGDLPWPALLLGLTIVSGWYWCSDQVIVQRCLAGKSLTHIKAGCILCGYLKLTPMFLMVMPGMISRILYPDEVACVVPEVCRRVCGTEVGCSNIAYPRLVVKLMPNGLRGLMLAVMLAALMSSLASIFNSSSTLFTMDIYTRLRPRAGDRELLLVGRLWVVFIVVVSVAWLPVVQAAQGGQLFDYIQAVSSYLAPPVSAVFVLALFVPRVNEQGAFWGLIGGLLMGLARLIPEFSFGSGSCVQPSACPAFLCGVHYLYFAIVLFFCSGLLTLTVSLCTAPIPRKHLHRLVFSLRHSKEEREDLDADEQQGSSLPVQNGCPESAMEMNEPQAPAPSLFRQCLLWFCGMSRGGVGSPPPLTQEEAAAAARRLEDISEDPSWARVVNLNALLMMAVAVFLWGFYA
Human sodium/glucose co-transporter type 1 (SGLT1), sequence (P13866 whole entry): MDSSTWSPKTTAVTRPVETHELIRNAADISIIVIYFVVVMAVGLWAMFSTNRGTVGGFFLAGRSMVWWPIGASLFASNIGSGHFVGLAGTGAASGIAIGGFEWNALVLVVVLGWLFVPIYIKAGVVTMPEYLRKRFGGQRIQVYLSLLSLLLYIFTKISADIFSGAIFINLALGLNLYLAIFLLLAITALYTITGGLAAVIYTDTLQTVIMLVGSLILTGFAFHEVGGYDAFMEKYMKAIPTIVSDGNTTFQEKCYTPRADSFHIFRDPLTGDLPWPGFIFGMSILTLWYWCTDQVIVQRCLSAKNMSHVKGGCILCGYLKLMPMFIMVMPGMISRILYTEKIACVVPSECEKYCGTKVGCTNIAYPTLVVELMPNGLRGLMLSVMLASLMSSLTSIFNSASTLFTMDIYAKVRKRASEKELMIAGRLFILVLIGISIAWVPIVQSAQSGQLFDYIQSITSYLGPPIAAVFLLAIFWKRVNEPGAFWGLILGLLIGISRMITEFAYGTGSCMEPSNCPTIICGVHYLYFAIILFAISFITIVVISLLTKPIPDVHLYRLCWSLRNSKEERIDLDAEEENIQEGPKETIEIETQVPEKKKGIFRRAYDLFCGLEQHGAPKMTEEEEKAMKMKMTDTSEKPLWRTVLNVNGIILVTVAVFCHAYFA

For orientation: IC50 means the concentration that gives 50% inhibition. Turning to `CS[C@H]1O[C@@H](c2ccc(C)c(Cc3ccc(CCCC(=O)NCCN(CCNC(=O)CCCc4ccc(Cc5cc([C@@H]6O[C@H](SC)[C@@H](O)[C@H](O)[C@H]6O)ccc5C)cc4)CCNC(=O)CCCc4ccc(Cc5cc([C@@H]6O[C@H](SC)[C@@H](O)[C@H](O)[C@H]6O)ccc5C)cc4)cc3)c2)[C@H](O)[C@@H](O)[C@@H]1O` [(S,R,S,R,R,S,R,S,R,R)-N,N′,N″-(nitrilotris(ethane-2,1-diyl))tris(4-(4-(2-methyl-5-((2S,3R,4R,5S,6R)-3,4,5-trihydroxy-6-(methylthio)tetrahydro-2H-pyran-2-yl)benzyl)phenyl)butanamide)], the half-inhibitory concentration (IC50) was less than 10 nM in experiment [1] and less than 100 nM in experiment [2].

Take `CS[C@H]1O[C@@H](c2ccc(C)c(Cc3ccc(/C=C/CC(C(=O)NC(C)(C)C(N)=O)C(=O)NC(C)(C)C(N)=O)cc3)c2)[C@H](O)[C@@H](O)[C@@H]1O` [N1,N3-bis(1-amino-2-methyl-1-oxopropan-2-yl)-2-((E)-3-(4-(2-methyl-5-((2S,3R,4R,5S,6R)-3,4,5-trihydroxy-6-(methylthio)tetrahydro-2H-pyran-2-yl)benzyl)phenyl)allyl)malonamide]: the IC50 in experiment [1] is less than 10 nM; in experiment [2], less than 100 nM.

In the case of `CS[C@H]1O[C@@H](c2ccc(C)c(Cc3ccc(OCC(=O)NC(CO)(CO)CO)cc3)c2)[C@H](O)[C@@H](O)[C@@H]1O` [N-(1,3-dihydroxy-2-(hydroxymethyl)propan-2-yl)-2-(4-(2-methyl-5-((2S,3R,4R,5S,6R)-3,4,5-trihydroxy-6-(methylthio)tetrahydro-2H-pyran-2-yl)benzyl)phenoxy)acetamide], the concentration for half-maximal inhibition (IC50) in experiment [1] is less than 10 nM; in experiment [2], less than 100 nM.

`CS[C@H]1O[C@@H](c2ccc(C)c(Cc3ccc(OCCCC(=O)NC(CO)(CO)CO)cc3)c2)[C@H](O)[C@@H](O)[C@@H]1O` [N-(1,3-dihydroxy-2-(hydroxymethyl)propan-2-yl)-4-(4-(2-methyl-5-((2S,3R,4R,5S,6R)-3,4,5-trihydroxy-6-(methylthio)tetrahydro-2H-pyran-2-yl)benzyl)phenoxy)butanamide]: the IC50 in experiment [1] and in experiment [2] was less than 10 nM each time.

Regarding `CS[C@H]1O[C@@H](c2ccc(C)c(Cc3ccc(CCCC(=O)NC(CO)(CO)CO)cc3)c2)[C@H](O)[C@@H](O)[C@@H]1O` [N-(1,3-dihydroxy-2-(hydroxymethyl)propan-2-yl)-4-(4-(2-methyl-5-((2S,3R,4R,5S,6R)-3,4,5-trihydroxy-6-(methylthio)tetrahydro-2H-pyran-2-yl)benzyl)phenyl)butanamide], the IC50 in experiment [1] and in experiment [2] was less than 10 nM each time.

Turning to `CS[C@H]1O[C@@H](c2ccc(C)c(Cc3ccc(CCCCC(=O)NC(CO)(CO)CO)cc3)c2)[C@H](O)[C@@H](O)[C@@H]1O` [N-(1,3-dihydroxy-2-(hydroxymethyl)propan-2-yl)-5-(4-(2-methyl-5-((2S,3R,4R,5S,6R)-3,4,5-trihydroxy-6-(methylthio)tetrahydro-2H-pyran-2-yl)benzyl)phenyl)pentanamide], the IC50 in experiment [1] and in experiment [2] was less than 10 nM in each case.

For `CS[C@H]1O[C@@H](c2ccc(C)c(Cc3ccc(CCCCCC(=O)NC(CO)(CO)CO)cc3)c2)[C@H](O)[C@@H](O)[C@@H]1O` [N-(1,3-dihydroxy-2-(hydroxymethyl)propan-2-yl)-6-(4-(2-methyl-5-((2S,3R,4R,5S,6R)-3,4,5-trihydroxy-6-(methylthio)tetrahydro-2H-pyran-2-yl)benzyl)phenyl)hexanamide], the IC50 was less than 10 nM in experiment [1] and less than 100 nM in experiment [2].

`CS[C@H]1O[C@@H](c2ccc(C)c(Cc3ccc(CCCCCCC(=O)NC(CO)(CO)CO)cc3)c2)[C@H](O)[C@@H](O)[C@@H]1O` [N-(1,3-dihydroxy-2-(hydroxymethyl)propan-2-yl)-7-(4-(2-methyl-5-((2S,3R,4R,5S,6R)-3,4,5-trihydroxy-6-(methylthio)tetrahydro-2H-pyran-2-yl)benzyl)phenyl)heptanamide]: the 50% inhibitory concentration (IC50) was less than 10 nM in experiment [1] and less than 100 nM in experiment [2].

Take `CS[C@H]1O[C@@H](c2ccc(C)c(Cc3ccc(OCCCC(=O)NC(C)(CO)CO)cc3)c2)[C@H](O)[C@@H](O)[C@@H]1O` [N-(1,3-dihydroxy-2-methylpropan-2-yl)-4-(4-(2-methyl-5-((2S,3R,4R,5S,6R)-3,4,5-trihydroxy-6-(methylthio)tetrahydro-2H-pyran-2-yl)benzyl)phenoxy)butanamide]: the IC50 in experiment [1] and in experiment [2] was less than 100 nM throughout.

Take `CS[C@H]1O[C@@H](c2ccc(C)c(Cc3ccc(OCCCC(=O)NC(CO)CO)cc3)c2)[C@H](O)[C@@H](O)[C@@H]1O` [N-(1,3-dihydroxypropan-2-yl)-4-(4-(2-methyl-5-((2S,3R,4R,5S,6R)-3,4,5-trihydroxy-6-(methylthio)tetrahydro-2H-pyran-2-yl)benzyl)phenoxy)butanamide]: the IC50 in experiment [1] and in experiment [2] was less than 10 nM in each case.

With `CS[C@H]1O[C@@H](c2ccc(C)c(Cc3ccc(CCCC(=O)NC(C)(C)C(=O)N4CCN(CCO)CC4)cc3)c2)[C@H](O)[C@@H](O)[C@@H]1O` [N-(1-(4-(2-hydroxyethyl)piperazin-1-yl)-2-methyl-1-oxopropan-2-yl)-4-(4-(2-methyl-5-((2S,3R,4R,5S,6R)-3,4,5-trihydroxy-6-(methylthio)tetrahydro-2H-pyran-2-yl)benzyl)phenyl)butanamide], the IC50 in experiment [1] and in experiment [2] was less than 10 nM throughout.

As to `CS[C@H]1O[C@@H](c2ccc(C)c(Cc3ccc(OCCCC(=O)NC(C)(C)C(=O)N(C)CCN(C)C)cc3)c2)[C@H](O)[C@@H](O)[C@@H]1O` [N-(1-((2-(dimethylamino)ethyl)(methyl)amino)-2-methyl-1-oxopropan-2-yl)-4-(4-(2-methyl-5-((2S,3R,4R,5S,6R)-3,4,5-trihydroxy-6-(methylthio)tetrahydro-2H-pyran-2-yl)benzyl)phenoxy)butanamide], the IC50 in experiment [1] is less than 10 nM; in experiment [2], less than 100 nM.

For the compound `CS[C@H]1O[C@@H](c2ccc(C)c(Cc3ccc(CCCC(=O)NC(C)(C)C(=O)N(C)CCN(C)C)cc3)c2)[C@H](O)[C@@H](O)[C@@H]1O` [N-(1-((2-(dimethylamino)ethyl)(methyl)amino)-2-methyl-1-oxopropan-2-yl)-4-(4-(2-methyl-5-((2S,3R,4R,5S,6R)-3,4,5-trihydroxy-6-(methylthio)tetrahydro-2H-pyran-2-yl)benzyl)phenyl)butanamide], the IC50 in experiment [1] and in experiment [2] was less than 10 nM throughout.

As for `CS[C@H]1O[C@@H](c2ccc(C)c(Cc3ccc(OCCCC(=O)NC(C)(C)C(=O)NCCN(C)C)cc3)c2)[C@H](O)[C@@H](O)[C@@H]1O` [N-(1-((2-(dimethylamino)ethyl)amino)-2-methyl-1-oxopropan-2-yl)-4-(4-(2-methyl-5-((2S,3R,4R,5S,6R)-3,4,5-trihydroxy-6-(methylthio)tetrahydro-2H-pyran-2-yl)benzyl)phenoxy)butanamide], the IC50 in experiment [1] and in experiment [2] was less than 10 nM in each case.

Regarding `CS[C@H]1O[C@@H](c2ccc(C)c(Cc3ccc(CCCC(=O)NC(C)(C)C(=O)NCCN(C)C)cc3)c2)[C@H](O)[C@@H](O)[C@@H]1O` [N-(1-((2-(dimethylamino)ethyl)amino)-2-methyl-1-oxopropan-2-yl)-4-(4-(2-methyl-5-((2S,3R,4R,5S,6R)-3,4,5-trihydroxy-6-(methylthio)tetrahydro-2H-pyran-2-yl)benzyl)phenyl)butanamide], the IC50 in experiment [1] and in experiment [2] was less than 10 nM each time.

With `CS[C@H]1O[C@@H](c2ccc(Cl)c(Cc3ccc(OCCCC(=O)N(C)C(C)(C)C(N)=O)cc3)c2)[C@H](O)[C@@H](O)[C@@H]1O` [N-(1-amino-2-methyl-1-oxopropan-2-yl)-4-(4-(2-chloro-5-((2S,3R,4R,5S,6R)-3,4,5-trihydroxy-6-(methylthio)tetrahydro-2H-pyran-2-yl)benzyl)phenoxy)-N-methylbutanamide], the IC50 in experiment [1] and in experiment [2] was less than 10 nM in each case.

On to `CS[C@H]1O[C@@H](c2ccc(Cl)c(Cc3ccc(OCCCC(=O)NC(C)(C)C(N)=O)cc3)c2)[C@H](O)[C@@H](O)[C@@H]1O` [N-(1-amino-2-methyl-1-oxopropan-2-yl)-4-(4-(2-chloro-5-((2S,3R,4R,5S,6R)-3,4,5-trihydroxy-6-(methylthio)tetrahydro-2H-pyran-2-yl)benzyl)phenoxy)butanamide], for which the half-maximal inhibitory concentration (IC50) in experiment [1] and in experiment [2] was less than 10 nM throughout.

For `CS[C@H]1O[C@@H](c2ccc(C)c(Cc3ccc(OCCCC(=O)NC(C)(C)C(N)=O)cc3)c2)[C@H](O)[C@@H](O)[C@@H]1O` [N-(1-amino-2-methyl-1-oxopropan-2-yl)-4-(4-(2-methyl-5-((2S,3R,4R,5S,6R)-3,4,5-trihydroxy-6-(methylthio)tetrahydro-2H-pyran-2-yl)benzyl)phenoxy)butanamide], the IC50 in experiment [1] and in experiment [2] was less than 10 nM in each case.

As to `CS[C@H]1O[C@@H](c2ccc(C)c(Cc3ccc(CCCC(=O)NC(C)(C)C(N)=O)cc3)c2)[C@H](O)[C@@H](O)[C@@H]1O` [N-(1-amino-2-methyl-1-oxopropan-2-yl)-4-(4-(2-methyl-5-((2S,3R,4R,5S,6R)-3,4,5-trihydroxy-6-(methylthio)tetrahydro-2H-pyran-2-yl)benzyl)phenyl)butanamide], the IC50 in experiment [1] and in experiment [2] was less than 10 nM each time.
